Measured values: US20070042409A1 (priority 2005, published 2007)
Read-outs that look alike come from different tables or passages of the source. No end group written: not given here.

Experiments:
[1] = tested on: obestatin receptors, crude plasma membrane preparation of rat jejunum; assay: I^125-obestatin binding to crude plasma membrane preparation of rat jejunum; settings: for inhibition of I^125-obestatin binding: jejunum preparation; for competition of I^125-obestatin binding: rat jejunum preparation
Experimental: Mixture of the peptide (20 μg) and 1 mCi [^125I] NaI was transferred to precoated Iodogen vials and incubated for 4 min. The ^125I-labeled peptide was applied to a Sep-Pak C18 cartridge (Waters, Milford, Mass.) before elution with 60% acetonitrile/0.1% TFA. For radioligand binding assays, rat jejunum or other tissues were washed with buffer A (20 mM Hepes, 5 mM EDTA, 1 mM dithiothreitol (DTT), 10 μM amidinophenylmethanesulfonyl fluoride, 5 mg/L leupeptin, 100 mM KCl, pH 7.5), cut into small pieces and homogenized using a Physcotron motorized homogenizer. The homogenates were centrifuged at 1,000 g for 5 min. and the supernatant was centrifuged at 300,000 g for 1 h at 2° C. The pellets (crude membrane fractions) were resuspended with buffer A without KCl, quickly frozen under liquid nitrogen, and stored at −80° C. until use. […] After incubation, the tubes were centrifuged for 10 min. at 10,000 g, and the pellet was washed twice in ice-cold PBS before counting using a γ-spectrophotometer. Specific binding was calculated by subtracting nonspecific binding from total binding.

[2] = biological target: T1, GPR39 (Homo sapiens, UniProt O43194); assay: cAMP production in CHO cells overexpressing GPR39; type: cell-based
T1 construct: expressed in transfected cells; host or cells: CHO cells
T1 sequence (O43194 1-453): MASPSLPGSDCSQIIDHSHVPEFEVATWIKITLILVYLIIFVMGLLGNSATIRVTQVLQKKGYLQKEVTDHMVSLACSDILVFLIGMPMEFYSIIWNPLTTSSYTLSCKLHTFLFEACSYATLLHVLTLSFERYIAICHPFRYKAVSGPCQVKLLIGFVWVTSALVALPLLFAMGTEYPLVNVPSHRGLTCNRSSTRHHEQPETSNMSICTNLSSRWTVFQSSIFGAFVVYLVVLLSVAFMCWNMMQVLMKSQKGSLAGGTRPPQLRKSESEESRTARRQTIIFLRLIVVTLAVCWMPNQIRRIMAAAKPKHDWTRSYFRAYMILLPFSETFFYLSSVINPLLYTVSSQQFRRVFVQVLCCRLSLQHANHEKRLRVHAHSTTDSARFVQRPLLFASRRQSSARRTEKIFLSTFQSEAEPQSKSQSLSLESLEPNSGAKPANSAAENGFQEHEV

[3] = biological target: T1, GPR39; assay: I^125-obestatin binding to CHO cells overexpressing GPR39
[4] = Gastric emptying in mice; type: in vivo; settings: adult male mice, intraperitoneal, killed 2 h after treatment
Experimental: (§1) Analysis of gastrointestinal functions. Eight-week-old C57BL6 male mice were housed individually in a regulated environment. Before intraperitoneal treatment with different peptides, mice were deprived of food for 16 h with free access to water. Food intake was measured by placing preweighed pellets in the cage and weighing uneaten pellets at 1, 3 and 5 h after treatment. To estimate gastric emptying responses, mice deprived of food for 16 h were given food pellets for 90 min. before injection of different hormones or saline. After treatment, mice were deprived of food again and killed 2 h later. The stomach was excised at the pylorus and cardia before weighing. Gastric emptying was calculated by subtracting the stomach weight of treated mice from those killed at the time of the hormone injection.

[5] = Food intake in food-deprived mice after intraperitoneal peptide treatment; type: in vivo; settings: adult male mice, deprived of food 16 h, measured at 1, 3 and 5 h
Experimental: as §1

[6] = tested on: cultured rat pituitary cells; assay: GH secretion from cultured rat pituitary cells
Experimental: Pituitary cell cultures. Anterior pituitaries were removed from adult male Sprague-Dawley rats and dispersed with 0.3% collagenase, 0.1% hyaluronidase and DNase I (10 μg/ml). The cell suspension was centrifuged at 300 g for 5 min. and the cells were washed twice before incubated in DMEM containing 0.1% bovine serum albumin (BSA), penicillin (100 units/ml), streptomycin (100 μg/ml), fungizone (2.5 μg/ml) and 10% fetal calf serum. Cells were seeded onto poly-lysine-coated 24-well plates at a density of 2˜3×10^5 cells/well. Cultures were kept in a humidified atmosphere of 5% CO2 and 95% air at 37° C. […] Media was removed and rat GH was measured by an ELISA.

[7] = Body weight gain in adult male rats; type: in vivo; settings: for body weight: 1 μmol/kg body weight, thrice daily
[8] = tested on: jejunum muscle strips; assay: Isometric force measurement of jejunum muscle strips
Experimental: Isometric force measurements. Jejunum muscle strips (˜1 cm in length) were cut along the longitudinal axis of the circular muscle layer, and the mucosa was removed to minimize endogenous peptides. Muscle strips were mounted to a TIS8105R (Kent Scientific Corporation, Torrington, Conn.) isometric strain gauge and immersed in a 5 ml organ bath maintained at 37° C. with oxygenated KRB [Krebs-Ringer phosphate buffer, consisting of 50 mM HEPES, 100 mM NaCl, 5 mM KCl, and 1 mM each of MgCl2, NaH2PO4, and CaCl2] as described earlier (Porcher et al. (2005) Am J Physiol Gastrointest Liver Physiol 288(5): G1091-103.). A resting force of 1.0 g was applied to intestinal muscles and a 1.5 h equilibration period was allowed before testing of different peptides during a 5 min. period by incubating muscles with peptides at desired concentrations. After each test, muscle strips were washed with fresh KRB for 20 min. to allow full recovery of basal contractile activities. Maximal contraction was evaluated at the beginning and end of each experiment following treatment with 10 μM of acetylcholine chloride. Contractility data were digitized and stored in a computer using the Acknowledge software (MP 100, Biopac Systems, Inc., Goleta, Calif.). Magnitude of contractile strength is expressed as % of maximal contraction induced by acetylcholine.

[9] = biological target: T1, GPR39; assay: SRE promoter-luciferase reporter in cells cotransfected with GPR39; type: cell-based; settings: cotransfection of GPR39 and SRE promoter-luciferase construct
[10] = biological target: T2, V50-GPR39 (Homo sapiens, UniProt O43194, A50V); settings: ratio of affinities to obestatin
T2 sequence (O43194 1-453 A50V): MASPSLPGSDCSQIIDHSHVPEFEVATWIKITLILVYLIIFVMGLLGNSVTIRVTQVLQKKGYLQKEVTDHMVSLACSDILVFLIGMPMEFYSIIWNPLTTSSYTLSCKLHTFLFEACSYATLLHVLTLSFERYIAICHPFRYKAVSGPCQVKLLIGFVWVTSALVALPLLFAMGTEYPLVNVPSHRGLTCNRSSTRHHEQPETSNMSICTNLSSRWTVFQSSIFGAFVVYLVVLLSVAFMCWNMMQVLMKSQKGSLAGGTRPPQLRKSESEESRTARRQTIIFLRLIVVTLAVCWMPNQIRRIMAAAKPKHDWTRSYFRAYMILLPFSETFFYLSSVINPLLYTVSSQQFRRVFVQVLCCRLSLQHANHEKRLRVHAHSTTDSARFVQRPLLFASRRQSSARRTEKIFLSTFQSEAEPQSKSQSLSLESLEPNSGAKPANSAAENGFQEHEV

[11] = biological target: T3, GHSR (Homo sapiens, UniProt Q92847); assay: cAMP production in CHO cells expressing GHSR, with or without chimeric Gsq protein; type: cell-based; settings: without Gsq
T3 construct: expressed in transfected cells; host or cells: CHO cells
T3 sequence (Q92847 whole entry, species assumed): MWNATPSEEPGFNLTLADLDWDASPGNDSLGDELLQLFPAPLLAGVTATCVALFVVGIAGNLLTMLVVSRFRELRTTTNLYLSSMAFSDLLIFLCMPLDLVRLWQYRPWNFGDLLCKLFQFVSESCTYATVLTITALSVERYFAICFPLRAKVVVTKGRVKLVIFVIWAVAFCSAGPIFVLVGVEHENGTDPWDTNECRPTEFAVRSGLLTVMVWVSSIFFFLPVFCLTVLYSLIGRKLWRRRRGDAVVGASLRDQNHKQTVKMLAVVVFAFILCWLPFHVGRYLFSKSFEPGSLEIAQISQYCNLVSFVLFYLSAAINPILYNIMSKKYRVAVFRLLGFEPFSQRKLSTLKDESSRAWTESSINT

[12] = biological target: T4, GPR39 (wild type A50-GPR39) (human, UniProt O43194 1-453); assay: displacement of I^125-obestatin from GPR39
T4 construct: also called obestatin receptor; orphan receptor GPR39
T4 sequence: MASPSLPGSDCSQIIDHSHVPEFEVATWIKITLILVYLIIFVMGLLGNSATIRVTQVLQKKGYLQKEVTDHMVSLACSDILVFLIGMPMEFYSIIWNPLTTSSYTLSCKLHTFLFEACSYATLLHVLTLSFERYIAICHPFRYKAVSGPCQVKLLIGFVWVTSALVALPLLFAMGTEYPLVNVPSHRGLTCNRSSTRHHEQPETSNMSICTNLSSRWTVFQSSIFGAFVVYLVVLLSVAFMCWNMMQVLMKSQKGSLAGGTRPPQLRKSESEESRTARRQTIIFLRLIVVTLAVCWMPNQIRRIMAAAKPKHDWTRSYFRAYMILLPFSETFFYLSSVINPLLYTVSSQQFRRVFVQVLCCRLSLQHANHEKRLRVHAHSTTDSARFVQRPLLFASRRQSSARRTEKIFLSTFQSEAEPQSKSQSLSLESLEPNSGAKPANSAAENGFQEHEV

**Q.** What does the source list for `Nc1nc2c(ncn2[C@@H]2O[C@H](COP(=O)(O)OP(=O)(O)OP(O)(O)=S)[C@@H](O)[C@H]2O)c(=O)[nH]1` [GTPγS]?
**A.** inhibition of I^125-obestatin binding ([1]; GTPγS 1 uM): 5%; inhibition of I^125-obestatin binding ([1]; GTPγS 10 uM): 20%; inhibition of I^125-obestatin binding ([1]; GTPγS 100 uM): 45%

**Q.** Which results are given for `CC[C@H](C)[C@H](NC(=O)[C@@H]1CCCN1C(=O)[C@@H](NC(=O)[C@@H](N)Cc1ccccc1)C(C)C)C(=O)N[C@@H](Cc1ccccc1)C(=O)N[C@H](C(=O)N[C@@H](Cc1ccc(O)cc1)C(=O)NCC(=O)N[C@@H](CCC(=O)O)C(=O)N[C@@H](CC(C)C)C(=O)N[C@@H](CCC(N)=O)C(=O)N[C@@H](CCCNC(=N)N)C(=O)N[C@@H](CCSC)C(=O)N[C@@H](CCC(N)=O)C(=O)N[C@@H](CCC(=O)O)C(=O)N[C@@H](CCCCN)C(=O)N[C@@H](CCC(=O)O)C(=O)N[C@@H](CCCNC(=N)N)C(=O)N[C@@H](CC(N)=O)C(=O)N[C@@H](CCCCN)C(=O)NCC(=O)N[C@@H](CCC(N)=O)C(=O)O)[C@@H](C)O` [motilin]?
**A.** competition of I^125-obestatin binding [1]: not competed; cAMP production [2]: ineffective

**Q.** Which “competition of I^125-obestatin binding” value [1] does the source give for “(des1-10)obestatin: truncated obestatin lacking residues 1-10 (LSGVQYQQHSQAL)” here?
**A.** Its value is “less effective than obestatin”.

**Q.** And the “competition of obestatin binding to GPR39” value [3]?
**A.** Its value is “less effective”.

**Q.** Which results are given for “NA-obestatin: non-amidated obestatin, synthesized by GL Biochem”?
**A.** gastric emptying activity [4]: less effective; food intake [5]: minimally effective; competition of I^125-obestatin binding [1]: less effective than obestatin

**Q.** What does the source list for “ghrelin: n-octanoylated 28 amino acid peptide, endogenous GHSR ligand; purchased from Phoenix Pharmaceuticals (GSSFLSPEHQRVQQRKESKKPPAKLQPR; not fully specified (residue 3); UniProt Q9UBU3 24-51, looked up) [reference compound]”?
**A.** gastric emptying activity [4]: ineffective; food intake [5]: minimally effective; GH secretion [6]: 2.32+/−0.08 ng/culture; competition of I^125-obestatin binding [1]: not competed; cAMP production [2]: ineffective; body weight [7]: increased body weight

**Q.** With “neuromedin U: peptide purchased from Phoenix Pharmaceuticals (FRVDEEFQSPFASQSRGYFLFRPRN; ends and bridges not checked; UniProt P48645 142-166, looked up)” as the molecule, how does the “competition of I^125-obestatin binding” value [1] read?
**A.** The value was “not competed”.

**Q.** With “synthesized amidated human obestatin, 23 residue peptide derived from proghrelin; FNAPFDVGIKLSGVQYQQHSQAL-NH2 (SEQ ID NO:4); also used iodinated as radioligand” as the molecule, how does the gastric emptying activity [4] read?
**A.** The gastric emptying activity was “sustained suppression of gastric emptying activity”.

**Q.** And the food intake [5]?
**A.** The food intake was “suppressed food intake for five hours in a dose-dependent manner”.

**Q.** What about the “contractile activity of jejunum muscle strips in presence of ghrelin” value ([8]; effect on stimulatory effect of ghrelin) of the same molecule?
**A.** Its value is “antagonized the known stimulatory effect of ghrelin”.

**Q.** And the “contractile activity of jejunum muscle strips” value ([8]; isometric force measurement)?
**A.** Its value is “decreased contractile activity”.

**Q.** What about the SRE promoter-luciferase signaling [9] of the same molecule?
**A.** The SRE promoter-luciferase signaling was “conferred obestatin”.

**Q.** What about the “affinity of V50-GPR39 relative to wild type A50-GPR39” value [10] of the same molecule?
**A.** Its value is “two-fold higher affinity”.

**Q.** What about the GH secretion ([6]; 100 nM, cultured rat pituitary cells, 1 h, control 1.04+/−0.03) of the same molecule?
**A.** The GH secretion was 1.04+/−0.03 ng/culture.

**Q.** What about the Kd ([1]; labeled obestatin, rat jejunum crude plasma membrane) of the same molecule?
**A.** The Kd was 4 nM.

**Q.** And the “competition of obestatin binding to GPR39” value [3]?
**A.** The value was “competed”.

**Q.** And the cAMP response [11]?
**A.** Its cAMP response is “did not respond”.

**Q.** What about the cAMP production [2] of the same molecule?
**A.** Its cAMP production is “dose-dependent increases in cAMP production”.

**Q.** And the body weight [7]?
**A.** The body weight was “suppressed body weight gain”.

**Q.** What about the “body weight, cotreatment with ghrelin” value ([7]; cotreatment of obestatin with ghrelin) of the same molecule?
**A.** Its value is “antagonized the orexigenic action of ghrelin”.

**Q.** For “urocortin: peptide injected in mice as positive control for food intake suppression (DNPSLSIDLTFHLLRTLLELARTQSQRERAEQNRIIFDSV; ends and bridges not checked; UniProt P55089 83-122, looked up) [reference compound]”, which food intake [5] is on record?
**A.** The food intake was “suppressed food intake”.

B1: (des1-10)obestatin (peptide)
peptide: LSGVQYQQHSQAL
modifications: ends and bridges not checked
notes: Synthetic obestatin lacking residues 1-10; The range 11-23 is derived from the name; also called truncated (des1-10)obestatin
**Q.** Does B1 bind [12]?
**A.** Result: binds
